Experimental data taken from the supplement of paper PMC4862054.

Experiments:
Settings in all cases: incubation time: 72 h
Hs578T = test: drug sensitivity score (DSS), CellTiter-Blue viability (DSS (AUC-based score)); higher = stronger viability inhibition; extreme values may be limits of the assay
Experimental: (§1)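 DSRT with the CellTiter-Blue (resazurin reduction) viability readout, fluorescence 560/590 nm, 72 h incubation. Plates were normalised to DMSO and benzethonium chloride controls. DSS is computed from the area under the fitted dose-response curve (5 or 9 concentrations).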

BT-474 = test: as above
Experimental: as §1

BT-549 [1] = test: as above
Experimental: as §1

CAL-85-1 [2] = test: as above
Experimental: as §1

MDA-MB-453 = test: as above
Experimental: as §1

SK-BR-3 = test: as above
Experimental: as §1

HCC1937 = test: as above
Experimental: as §1

MFM-223 [3] = test: as above
Experimental: as §1

HCC1143 [4] = test: as above
Experimental: as §1

MDA-MB-231 = test: as above
Experimental: as §1

HDQ-P1 [5] = test: as above
Experimental: as §1

CAL-148 = test: as above
Experimental: as §1

MDA-MB-436 = test: as above
Experimental: as §1

HCC1599 [6] = test: as above
Experimental: as §1

CAL-51 = test: as above
Experimental: as §1

MDA-MB-468 = test: as above
Experimental: as §1

CAL-120 [7] = test: as above
Experimental: as §1

DU-4475 = test: as above
Experimental: as §1

BT-549 [8] = test: drug sensitivity score (DSS), CellTox Green (DSS (AUC-based score)); higher = stronger drug effect (viability inhibition or cytotoxicity); extreme values may be limits of the assay
Summary of the method: (§2)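 After 72 h of incubation in 384-well plates with compound at 5 concentrations (10-fold steps, 10,000-fold range set per compound), breast cancer cell lines seeded in 20 µl suspension were read first for CellTox Green fluorescence at 485/520 nm. CellTiter-Glo luminescence was measured next, after 10 min at room temperature. Normalisation on each plate used 0.1 % DMSO and a positive kill control, and the drug sensitivity score was computed from the area under the fitted dose-response curve.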

CAL-85-1 [9] = test: as above
Summary of the method: as §2

MFM-223 [10] = test: as above
Summary of the method: as §2

HCC1143 [11] = test: as above
Summary of the method: as §2

HDQ-P1 [12] = test: as above
Summary of the method: as §2

HCC1599 [13] = test: as above
Summary of the method: as §2

MCF-10A = test: as above
Summary of the method: as §2

CAL-120 [14] = test: as above
Summary of the method: as §2

SMILES | drug sensitivity score (Hs578T) | drug sensitivity score (BT-474) | drug sensitivity score (BT-549 [1]) | drug sensitivity score (CAL-85-1 [2]) | drug sensitivity score (MDA-MB-453) | drug sensitivity score (SK-BR-3) | drug sensitivity score (HCC1937) | drug sensitivity score (MFM-223 [3]) | drug sensitivity score (HCC1143 [4]) | drug sensitivity score (MDA-MB-231) | drug sensitivity score (HDQ-P1 [5]) | drug sensitivity score (CAL-148) | drug sensitivity score (MDA-MB-436) | drug sensitivity score (HCC1599 [6]) | drug sensitivity score (CAL-51) | drug sensitivity score (MDA-MB-468) | drug sensitivity score (CAL-120 [7]) | drug sensitivity score (DU-4475) | drug sensitivity score (BT-549 [8]) | drug sensitivity score (CAL-85-1 [9]) | drug sensitivity score (MFM-223 [10]) | drug sensitivity score (HCC1143 [11]) | drug sensitivity score (HDQ-P1 [12]) | drug sensitivity score (HCC1599 [13]) | drug sensitivity score (MCF-10A) | drug sensitivity score (CAL-120 [14])
CN1CCN(c2ccc3nc(-c4c(N)c5c(F)cccc5[nH]c4=O)[nH]c3c2)CC1 [Dovitinib] | 0 | 0 | 0 | 0 | 0 | 0 | 3.16 | 0 | 0 | 0 | 0 | 0 | 0 | 0 | 0 | 0 | 0 | 0 | 0 | 0 | 0 | 0 | 0 | 0 | 0 | 0
O=c1[nH]cc(F)c(=O)[nH]1 [Fluorouracil] | 0 | 0 | 2.25 | 5.28 | 1.33 | 8.26 | 0 | 0 | 0 | 1.96 | 0 | 4.79 | 1.93 | 1.41 | 1.79 | 0.272 | 2.97 | 1.34 | 0 | 0 | 0 | 0 | 0 | 0 | 0 | 0
C[C@@H]1C=C2C(=O)O[C@@H]3CC[C@H](C1)[C@]23O [Galiellalactone] | 0.961 | 2.65 | 10.4 | 9.4 | 8.97 | 6.66 | 5.76 | 2.28 | 0 | 9.39 | 2.82 | 4.5 | 6.26 | 0 | 0.94 | 6.59 | 0 | 0 | 0 | 1.02 | 0 | 0 | 0 | 0 | 0 | 0
COC1=C2C[C@@H](C)C[C@H](OC)[C@H](O)[C@@H](C)/C=C(\C)[C@H](OC(N)=O)[C@@H](OC)/C=C\C=C(/C)C(=O)NC(=CC1=O)C2=O [Geldanamycin] | 19.2 | 22.7 | 23.4 | 16.6 | 23 | 25.2 | 21.8 | 21.8 | 20.4 | 24.2 | 20.1 | 18.2 | 25 | 14.7 | 14.4 | 24.1 | 25.7 | 22.5 | 0 | 6.66 | 2.69 | 0 | 0 | 0 | 7.09 | 0
Cn1cnc2c(F)c(Nc3ccc(Br)cc3F)c(C(=O)NOCCO)cc21 [MEK-162] | 0 | 0 | 0 | 0 | 0 | 0 | 0 | 0 | 7.86 | 4.22 | 0 | 0 | 0 | 2.32 | 0.246 | 0 | 0 | 16 | 0 | 0 | 3.03 | 0 | 1.87 | 0 | 0 | 0
CCOc1cc2ncc(C#N)c(Nc3ccc(OCc4ccccn4)c(Cl)c3)c2cc1NC(=O)/C=C/CN(C)C [Neratinib] | 0 | 0 | 0 | 0 | 4.42 | 0 | 0 | 0 | 0 | 0 | 0 | 0 | 0 | 0 | 0 | 0 | 0 | 0 | 0 | 3.47 | 0 | 0 | 0 | 0 | 0 | 0
COc1ccc(C2=N[C@@H](c3ccc(Cl)cc3)[C@@H](c3ccc(Cl)cc3)N2C(=O)N2CCNC(=O)C2)c(OC(C)C)c1 [Nutlin-3] | 0 | 0 | 0 | 0 | 0 | 0 | 0 | 0 | 0 | 0 | 0 | 0 | 0 | 0 | 2.91 | 0 | 0 | 3.53 | 0 | 0 | 0 | 0 | 0 | 0 | 0 | 0
COC1=CC(c2cc3ccccc3[nH]2)=N/C1=C\c1[nH]c(C)cc1C [Obatoclax] | 16.6 | 15.2 | 16.4 | 8.55 | 13.8 | 20.1 | 25.1 | 7.09 | 9.51 | 21 | 15.4 | 4.47 | 13.7 | 7.48 | 7.63 | 16.6 | 25.3 | 2.24 | 0 | 0 | 0 | 0 | 0 | 0 | 0 | 0
COC(=O)C[C@](O)(CCCC(C)(C)O)C(=O)O[C@@H]1C(OC)=C[C@]23CCCN2CCc2cc4c(cc2[C@H]13)OCO4 [Omacetaxine] | 28.8 | 20.5 | 28.3 | 31.8 | 28.2 | 28.3 | 31.8 | 26.3 | 24.5 | 27.8 | 30.7 | 31.6 | 26.7 | 24.8 | 30.7 | 28.5 | 28.6 | 38.1 | 4.27 | 29 | 18.3 | 0 | 3.97 | 0 | 13.3 | 1.24
CC(=O)O[C@H]1C(=O)[C@@]2(C)[C@H]([C@H](OC(=O)c3ccccc3)[C@]3(O)C[C@H](OC(=O)[C@H](O)[C@@H](NC(=O)c4ccccc4)c4ccccc4)C(C)=C1C3(C)C)[C@]1(OC(C)=O)CO[C@@H]1C[C@@H]2O [Paclitaxel] | 24.4 | 19 | 24.7 | 18.3 | 22.2 | 26.6 | 22.9 | 15 | 17.6 | 21.4 | 20.9 | 21.9 | 15.8 | 3.04 | 19.3 | 16.4 | 22.2 | 18.3 | 9.38 | 23.2 | 13.7 | 0 | 0 | 0 | 21.4 | 2.71
CC(C)(C)c1cc(NC(=O)Nc2ccc(-c3cn4c(n3)sc3cc(OCCN5CCOCC5)ccc34)cc2)no1 [Quizartinib] | 0 | 0 | 3.75 | 0 | 0 | 0 | 0 | 0 | 0 | 0 | 0 | 0 | 0 | 0.62 | 0 | 0 | 0 | 0 | 0 | 0 | 0 | 0 | 0 | 0 | 0 | 0
O=C(c1ccc(OCCN2CCCCC2)cc1)c1c(-c2ccc(O)cc2)sc2cc(O)ccc12 [Raloxifene] | 0 | 0 | 0 | 0 | 1.25 | 0 | 0 | 0 | 0 | 0 | 0 | 0 | 0 | 0 | 0 | 0 | 0 | 0 | 0 | 0 | 0 | 0 | 1.26 | 0.798 | 0 | 1.42
Cn1c(=O)c(F)c(Nc2ccc(I)cc2F)c2c(=O)n(C[C@@H](O)CO)cnc21 [TAK-733] | 1.73 | 0 | 0 | 7.69 | 3.27 | 0 | 0 | 5.03 | 8.4 | 18.1 | 3.87 | 0 | 0 | 0 | 3.52 | 0 | 4.61 | 29.3 | 0 | 5.06 | 0 | 0 | 0 | 0 | 0 | 0.284
